Reference: PMC8780741, “Integration of In Silico, In Vitro and In Situ Tools for the Preformulation and Characterization of a Novel Cardio-Neuroprotective Compound during the Early Stages of Drug Development” (Pharmaceutics, 2022)
In brackets after ≈: the same amount, converted by molar mass. Like-named read-outs stand apart in the source and are kept apart here.

Experiments:
[1] = Apparent permeability across MDCK-MDR1 monolayers; type: in vitro ADME, Canine; conditions: dog, 37 °C, stirring at 50 rpm
Procedure: MDCK (Madin–Darby Canine Kidney) cells, their transfected clone MDCK-MDR1, and Caco-2 cells were grown in the modified Dulbecco Eagle medium added with L-glutamine, fetal bovine serum and penicillin−streptomycin. The number of cells seeded in transwells with a surface area of 4.2 cm^2 depended on the cell line: 250,000 cells/cm^2 for MDCK and Caco-2 and 150,000 cells/cm^2 for MDCK-MDR1. Experiments were performed between 7 and 9 days for MDCK and MDCK-MDR1 and between 19 and 21 for Caco-2 cells after seeding. Prior to drug placement, cell monolayer integrity was assessed by measuring transepithelial electrical resistance (TEER). Transport studies were performed on an orbital shaker at 37 °C and 50 rpm. Four samples of 200 μL were taken from the receptor side at 0, 15, 30, 60 and 90 min, and two samples from the donor compartment at the beginning and end of the experiment. A standard experiment was performed with the same buffer for the apical and basolateral compartments in the apical to basolateral (A-B) and basolateral to apical (B-A) directions. The drug concentration was 100 μM in all experiments and samples were analyzed immediately by HPLC. The retention time was 2.3 min at maximum wavelengths (λmax = 260 nm). […] The lower limit of quantitation of JM-20 was adequate to interpolate the values obtained in the samples. […]

[2] = parameters: method as in earlier work; conditions: pH 4.5 and 6.8, 24 h, 37 ± 1°C; cited from earlier work
rat small intestine = assay: In situ closed-loop (Doluisio) intestinal perfusion; type: in vivo; conditions: 100 µM, n = 4
Procedure: The animal experiments, performed on 250–300 g male Wistar rats, were designed following the guidelines described in EC Directive 86/609, Council of the Europe Convention ETS 123 and Spanish national laws about the use of animals in research, and were approved by the Spanish Committee (Spain, code A1330354541263).
The “closed-loop” in situ perfusion method, based on the Doluisio technique, was performed according to published reports. Briefly, in anesthetized rats in which an abdominal incision was made, the small intestine was located and the bile duct was ligated avoiding enterohepatic circulation of the drug. The procedure for making three loops in the duodenum, jejunum, and ileum was the same as previously described. Intestinal contents were removed by washing with physiological solutions and the peritoneal cavity was covered with cotton wool pads to prevent evaporation of peritoneal fluid and loss of body heat.
A solution of JM-20 (100 µM) was perfused with one syringe, and 5 min later the sample was collected with the other syringe. This procedure was performed alternatively for 30 min to ensure mixing of the solution in the lumen of small intestine. Samples were immediately analyzed for JM-20 at maximum wavelengths (λmax = 262 nm) by HPLC (Alliance-Waters 2695) using a Nova-Pak C18 column (4 μM, 3.9 × 150 mm) and UV detector (Waters 2487). The analytical procedure was as follows previously validated. The exact length of the intestine was determined at the end of the study.
The calculation of permeability takes into account that water flux during the experiment can be significant, the drug concentration in each sample was modified according to the following Equation (3):(3) C=CeVT/V0 where Ct represents the concentration without water reabsorption at time t, Ce is the experimental concentration value, V0 is the initial volume and Vt is the final volume. The coefficient of absorption rate (ka) and the initial concentration of JM-20 available for absorption (C0) were determined by non-linear regression of the following Equation (4):(4) Ct=C0·e^−kat […]

[3] = Thermodynamic solubility, shake-flask saturation method, and dose number; type: physicochemical; conditions: for solubility: USP buffer solution; for Do (dose number): D = 140 mg, 250 mL
Procedure: For the solubility study, six buffer solutions (pH 1.2, 3.0, 4.0, 4.5, 6.8 and 7.4) were prepared following the protocols published in the USP XXXVIII, United States Pharmacopoeia, as described above.
Solubility experiments for JM-20 were carried out according to the main regulatory guidelines for biowaivers. The tests were performed at the three recommended pH values (pH 1.2, 4.5 and 6.8) as well as pH […], 4.0 and 7.4 (USP buffer formulations). The shake-flask saturation method proposed by Baka et al. was used in the solubility study and the recommendations of Avdeef et al. were followed to improve the quality of the solubility data. The temperature was regulated at 37 °C. Equilibration times were 6 h stirring + 18 h sedimentation. At the end of equilibration, the two phases were separated by careful decantation. The samples were analyzed with a Thermo Fisher UV-Vis Spectrophotometer (λmax = 262 nm). A linear range of 2–20 μg/mL was obtained (r^2 > 0.99). Once the solubility range was determined, the dose number (Do) was calculated following Equation (1) (1) Do=D/Vo/Cs where D is the highest strength or highest dose administered (mg) according to FDA or EMA criteria, Vo is the volume of water ([…]).

## CCOC(=O)C1=C(C)NC2=C(C=Nc3ccccc3N2)C1c1ccccc1[N+](=O)[O-] (stereo not drawn) [JM-20, 3-ethoxycarbonyl-2-methyl-4-(2-nitrophenyl)-4,11-dihydro-1H-pyrido [2,3-b][1,5] benzodiazepine]
[1]
  Papp A→B at 90 min, 100 µM: 21.7 ± 2.2 ×10⁻⁶ cm/s
  Papp B→A at 90 min, 100 µM: 9.6 ± 0.5 ×10⁻⁶ cm/s
[2]
  Qualitative stability in aqueous medium: some degradation
Rat small intestine; Duodenum
  Peff ± SD: 9.20 ± 0.89 ×10^−5 cm/s
Rat small intestine; Ileum
  Peff ± SD: 6.82 ± 1.44 ×10^−5 cm/s
Rat small intestine; Jejunum
  Peff ± SD: 6.63 ± 1.30 ×10^−5 cm/s
[3]; aqueous buffer, thermodynamic from solid, buffer pH 1.2, 37 °C, shake-flask, read-out: Solubility ± SD
  solubility: 9.18 ± 0.16 µg/mL (≈ 22.7 µM)
[3]; aqueous buffer, thermodynamic from solid, buffer pH 3.5, 37 °C, shake-flask, read-out: Solubility ± SD
  solubility: 12.7 ± 0.83 µg/mL (≈ 31.5 µM)
[3]; aqueous buffer, thermodynamic from solid, buffer pH 4.0, 37 °C, shake-flask, read-out: Solubility ± SD
  solubility: 25.4 ± 0.66 µg/mL (≈ 62.8 µM)
[3]; aqueous buffer, thermodynamic from solid, buffer pH 4.5, 37 °C, shake-flask, read-out: Solubility ± SD
  solubility: 30.8 ± 1.29 µg/mL (≈ 76.3 µM)
[3]; aqueous buffer, thermodynamic from solid, buffer pH 6.8, 37 °C, shake-flask, read-out: Solubility ± SD
  solubility: 11.3 ± 0.69 µg/mL (≈ 27.9 µM)
[3]; aqueous buffer, thermodynamic from solid, buffer pH 7.4, 37 °C, shake-flask, read-out: Solubility ± SD
  solubility: 12.6 ± 0.36 µg/mL (≈ 31.3 µM)
[3]; pH 1.2, acidic pH, read-out: Solubility at acidic pH (abstract)
  solubility: 9.18 ± 0.16 µg/mL (≈ 22.7 µM)
[3]; at the different pH values, dose 140 mg
  Dose number (Do): greater than 1
[3]; calculated with the lowest aqueous solubility
  D0 (dose number): 61
[3]; pH 1.2
  Do (dose number): 61.00
[3]; pH 3.5
  Do (dose number): 44.03
[3]; pH 4.0
  Do (dose number): 22.06
[3]; pH 4.5
  Do (dose number): 18.16
[3]; pH 6.8
  Do (dose number): 49.56
[3]; pH 7.4
  Do (dose number): 44.30
